Measured values published in patent publication US20090137662A1, “SYNERGY OF DOPAMINE D2 AND ADENOSINE A2 RECEPTORS ACTIVATES PKA SIGNALING VIA BETA/GAMMA DIMERS” (The Regents of the University of California, priority 2002, published 2009).
Read-outs that look alike come from different tables or passages of the source.

What was measured:
[1] = system: CRE-regulated luciferase expression; assay: CRE-luciferase reporter in NG108-15 cells; type: cell-based; conditions: NG108-15 cells; for increase in luciferase activity above control: 200 mM ethanol
Protocol: Luciferase is used as a reporter gene in a transient expression system to identify substances that alter the effects of ethanol on CRE-regulated gene expression. Cells are cultured as described in Dohrman et al., Proc Natl Acad Sci USA (1996) 93:10217-10221, and are transfected using Effectene (Qiagene) as described by the manufacturers. Twenty-four hours after transfection the cells are treated with 200 mM ethanol for 30 min. to 36 hr. Luciferase activity is measured using Luciferase Assay System (Promega) and normalized to β-galactosidase activity.
(§1) NG108-15 cells were co-transfected with a fusion construct containing the cAMP response element (CRE) fused to luciferase as a reporter gene (Stratagene).
Since the ERK/MAPK pathway may regulate CREB phosphorylation and CRE-mediated gene expression, NG108-15 cells having the luciferase construct were co-incubated with 200 mM ethanol and a MEK inhibitor (PD98059 (2 nM, Calbiochem, San Diego, Calif.) or U0126 (1 μM, Calbiochem, San Diego, Calif.)) or a dominant negative MEK construct (DN-MEK, Dr. R. Seger) in which Lys-97 was replaced by alanine.
as §1

[2] = system: GFP-RIIβ; conditions: +100 mM EtOH 30 min, unstimulated: Golgi Apparatus
[3] = system: ε-PKC; type: cell-based; conditions: NG 108-15 or CHO cells; Ethanol 200 mM, 30 min; no compound: Perinucleus
Protocol: NG 108-15 or CHO cells were pre-incubated in the presence or absence of the indicated inhibitor for 30 min. (except for GF which was pre-incubated for 1 hour), then further incubated in the absence or presence of 200 mM ethanol for 30 min.

[4] = system: CREB (GAL4-CREB fusion, luciferase reporter); assay: GAL4-CREB / GAL4-luciferase reporter in NG108-15 cells; type: cell-based; conditions: ethanol exposure
Protocol: Cells are cultured as described in Dohrman et al., Proc Natl Acad Sci USA (1996) 93:10217-10221, and are transfected using Effectene (Qiagene) as described by the manufacturers. […] Luciferase activity is measured using Luciferase Assay System (Promega) and normalized to β-galactosidase activity.
NG108-15 cells are co-transfected with a GAL4-CREB fusion construct and with a second construct containing the DNA binding site of GAL4 fused to luciferase as a reporter gene. […] The ethanol-induced increase in luciferase activity induced was inhibited by Rp-cAMPS but not by the CaMK and PKC inhibitors KN-62 and GF, respectively (FIGS. 15 and 16B).

[5] = system: ε-PKC; assay: Translocation of ε-PKC in NG108-15 and CHO cells expressing the applicable receptor; type: cell-based
Source text: (§2) To determine whether addictive drugs other than ethanol would cause translocation of some proteins, we examine the effects of various receptor agonists and antagonists on ε-PKC δ-PKC or PKA Cα translocation in NG108-15 and CHO cells expressing the applicable receptor. […] Adenosine is also implicated in some behavioral effects of ethanol.
(§3) The mechanisms underlying ethanol- and dopamine-mediated translocation of ε-PKC and δ-PKC were studied by altering the activity of various molecules that might be in the pathways leading to translocation.

[6] = system: GFP-Cα; type: cell-based
[7] = system: δ-PKC; assay: Translocation of δ-PKC in NG108-15 and CHO cells expressing the applicable receptor; type: cell-based
Source text: as §2, §3

[8] = system: ε-PKC; type: cell-based; conditions: NG108-15 cells; for ε-PKC (% cells) Cytoplasmic staining / ε-PKC (% cells) Perinuclear staining: EtOH exposure, n = 5; for ε-PKC (% cells) Cytoplasmic staining: control 5 ± 2; for ε-PKC (% cells) Perinuclear staining: control 95 ± 2
Protocol: (§4) Naive NG108-15 cells were, therefore, incubated in for ten (10) min. in 100 nM PMA, to then determine localization of δ-PKC and ε-PKC.

[9] = system: δ-PKC; type: cell-based; conditions: NG108-15 cells
Protocol: as §4

[10] = system: Ethanol-indicative proteins in lymphocytes; conditions: Lymphocyte; ethanol-exposed; EUC origin Cytoplasm
Source text: (§5) The particular protein and cellular subregion(s) selected for examination can vary depending on the cell type to be used in a particular method. Cells used in the methods of the invention are of a cell type in which the selected protein is predominantly present in a different amount in a particular cellular subregion of ethanol-exposed cells compared to ethanol-unexposed cells. […] One of skill in the art can readily determine the intracellular distribution of other ethanol indicative proteins by staining ethanol-exposed and ethanol-unexposed cells of various cell types with stains (e.g., antibodies) specific for such proteins.

[11] = system: Ethanol-indicative proteins in NG108 cells; conditions: ethanol 10 minutes or 12-48 hours
Source text: as §5

[12] = system: Ethanol-indicative proteins in CHO cells
Source text: as §5

[13] = system: Ethanol-indicative proteins in Purkinje cells; conditions: Purkinje cells in brain section; ethanol 72 hr exposure; EUC origin Cytoplasm
Source text: as §5

[14] = system: PKCδ-GFP; conditions: +100 mM EtOH/30 min; for Subcellular Localization of PKCδ-GFP: unstimulated: Golgi Apparatus
[15] = system: PKA Cα; assay: PKA Cα translocation in NG108-15/D2 cells (immunocytochemistry, cell fractionation/western)
[16] = system: CREB phosphorylation; assay: CREB phosphorylation measured with antibody specific for phosphorylated CREB; type: cell-based
[17] = system: CRE-mediated gene expression; assay: CRE-luciferase reporter assay in NG108-15/D2 cells
Protocol: Cells were transiently transfected with a CRE-luciferase reporter construct to measure gene expression via endogenous CRE-binding protein (CREB).
NG108-15/D2 cells were plated at 1×10^6 cells/100 mm plate, grown in defined medium for 3 days, and then transfected with 10 μg of CRE-luciferase construct using the LipofectAMINE reagent (GIBCOL) as recommended by the manufacturer. Cells were cultured for 24 h post transfection before being seeded into 12-well plates. […] Cells were then washed with PBS and cultured for a total of 5 h. Cell extracts were prepared and luciferase activity measured with a luciferase assay system (Promega, Madison, Wis.), using a Rosys Anthos Lucy2 microplate luminometer (Anthos Labtec Instruments, Austria). Results are expressed as percent increase over control. Data represent three or more separate experiments from triplet wells. Luciferase activities were normalized for transfection efficiency determined in cells transfected in parallel with pCMVβgalactosidase. β-galactosidase activity was measured using a kit from Strategene (La Jolla, Calif.).

[18] = system: PKA Cα; assay: PKA Cα translocation in primary cultures of hippocampal neurons
[19] = system: PKA Cα; type: cell-based
Source text: as §2

[20] = ethanol 10′ exposure, EUC origin Perinucleus

CCO [Ethanol, ethanol]
increase in luciferase activity ([1]; 50 mM ethanol, 14-hour exposure): about 25%
increase in luciferase activity above control ([1]; 4 hour exposure): 29±6%
increase in luciferase activity above control ([1]; 14 hours of exposure): 79±4%
increase of expression of luciferase (CRE-luciferase) ([1]; ethanol exposure): more than 2 fold
Subcellular Localization of GFP-RIIβ ([2]; 1° Glia): Golgi Apparatus
Subcellular Localization of GFP-RIIβ ([2]; 1° Neurons): Golgi Apparatus
Subcellular Localization of GFP-RIIβ ([2]; NG108-15/D2R): Golgi Apparatus
Predominant ε-PKC Localization [3]: Cytoplasm
increase of expression of luciferase (GAL4-CREB / GAL4-luciferase) [4]: approximately 2 fold
Predominant Localization of ε-PKC (agent alone) ([5]; NG108-15 cells expressing the applicable receptor, 200 mM Ethanol, 50 nM NPA, 1 μM D-ala-D-leu-enkephalin, 2 μM R(+) methanindamide, 20 μM Carbachol, 10^−5 M UK14304, 20 nM CCPA, 100 nM CGS-21680 HCl, None: Perinucleus): Cytoplasm
Subcellular localization of GFP-Cα ([6]; 1° Glia (rat hippocampus culture), +100 mM EtOH/30 min or 50 nM NPA/30 min, unstimulated: Golgi Apparatus): Nucleus
cells showing the stated localization of GFP-Cα ([6]; 1° Glia, +100 mM EtOH/30 min or 50 nM NPA/30 min): [<20% cells]
Subcellular localization of GFP-Cα ([6]; 1° Neurons (rat hippocampus culture), +100 mM EtOH/30 min, unstimulated: Golgi Apparatus): Nucleus
cells showing the stated localization of GFP-Cα ([6]; 1° Neurons, +100 mM EtOH/30 min): [>50% cells]
cells showing the stated localization of GFP-Cα ([6]; NG108-15/D2R, +100 mM EtOH/30 min or 50 nM NPA/30 min): [>50% cells]
Subcellular localization of GFP-Cα ([6]; NG108-15/D2R, +100 mM EtOH/30 min or 50 nM NPA/30 min, unstimulated: Golgi Apparatus): Nucleus
Predominant Localization of δ-PKC (agent alone) ([7]; 200 mM Ethanol or 50 nM NPA, None: Golgi): Perinucleus &
Translocation of δ PKC and δ PKC, agent alone ([7]; D2-receptor-expressing NG108-15 and CHO cells, 10^−9 M NPA or 25 mM ethanol alone): neither agent alone caused translocation
ethanol-induced altered localization of ε-PKC ([8]; 25 mM ethanol, 4 days): also observed
ε-PKC (% cells) Cytoplasmic staining ([8]; listed as EtOH): 94 ± 2 % cells
ε-PKC (% cells) Cytoplasmic staining ([8]; listed as ethanol): more than 90 % cells
ε-PKC (% cells) Perinuclear staining ([8]; listed as EtOH): 94 ± 3 % cells
ε-PKC (% cells) Perinuclear staining ([8]; listed as ethanol): more than 90 % cells
ethanol-induced altered localization of δ-PKC ([9]; 25 mM ethanol, 4 days): also observed
δ-PKC (% cells) Golgi Staining ([9]; 200 mM EtOH 48 hours, n = 5, control 74 ± 7): 2 ± 2 % cells
localization of δ-PKC ([9]; 200 mM EtOH, 48 hours): localized to the perinucleus and nucleus and absent from the Golgi
Cellular subregion in which the protein is predominantly present, EEC (Destination): δ-PKC [10]: Cytoplasm
Cellular subregion in which the protein is predominantly present, EEC (Destination): ε-PKC [10]: Cytoplasm
Cellular subregion in which the protein is predominantly present, EEC (Destination): RIIβ ([11]; EUC origin Golgi): Nucleus
Cellular subregion in which the protein is predominantly present, EEC (Destination): δ-PKC ([11]; EUC origin Golgi): Perinucleus and nucleus
Cellular subregion in which the protein is predominantly present, EEC (Destination): Protein Phosphatase I and IIB ([11]; EUC origin Nucleus): Cytoplasm
Cellular subregion in which the protein is predominantly present, EEC (Destination): RACK 2 (β′COP) ([11]; EUC origin Perinucleus): Cytoplasm
Cellular subregion in which the protein is predominantly present, EEC (Destination): ε-PKC ([11]; EUC origin Perinucleus): Cytoplasm
Cellular subregion in which the protein is predominantly present, EEC (Destination): RACK 2 (β′COP) [12, 20]: Cytoplasm
Cellular subregion in which the protein is predominantly present, EEC (Destination): ε-PKC [12, 20]: Cytoplasm
Cellular subregion in which the protein is predominantly present, EEC (Destination): δ-PKC ([12]; ethanol 10 minutes or 12-48 hours, EUC origin Golgi): Perinucleus and nucleus
Cellular subregion in which the protein is predominantly present, EEC (Destination): ε-PKC [13]: Not detectable
Subcellular Localization of PKCδ-GFP ([14]; 1° Glia): Golgi Apparatus
cells showing the stated localization of PKCδ-GFP ([14]; NG108-15/D2R): [>50% cells]
Subcellular Localization of PKCδ-GFP ([14]; NG108-15/D2R): Perinucleus/

CCCN1CCc2cccc3c2[C@H]1Cc1ccc(O)c(O)c1-3 [NPA, R(−)-10,11-dihydroxy-N-n-propylnorapomorphine]
PKA Cα in subcellular fractions (Western blot) [15]: translocation of PKA Cα from the membrane fraction to the nucleus and cytoplasm
PKA Cα localization after agonist or ethanol (immunostaining) [15]: translocation of PKA Cα from the Golgi into the cytoplasm and nucleus
PKA Cα translocation, subthreshold NPA and ethanol together [15]: striking synergistic increase
PKA translocation at subthreshold concentration, agent alone [15]: did not cause PKA translocation
time at which NPA-induced PKA Cα translocation reaches a maximum [15]: 10 min
Km ([15]; read-out: Km of NPA-induced PKA Cα translocation (function of NPA concentration)): 1.6 nM
levels of CREB phosphorylation, co-incubation of ethanol and NPA [16]: synergistic interactions
CRE-mediated luciferase activity, subthreshold NPA and ethanol together [17]: striking synergistic increase
luciferase activity (CRE-luciferase) [17]: increases luciferase activity to the same extent as forskolin
PKA Cα localization after agonist or ethanol [18]: PKA Cα translocation to the cytoplasm, neurites and nucleus
PKA Cα translocation, subthreshold NPA and ethanol together [18]: Synergy of PKA Cα translocation occurs
Predominant Localization of ε-PKC (agent alone) [5]: Cytoplasm
Subcellular localization of GFP-Cα [6]: Nucleus
cells showing the stated localization of GFP-Cα [6]: [>50% cells]
Predominant Localization of δ-PKC (agent alone) [7]: Perinucleus &
Translocation of δ PKC and δ PKC, agent alone [7]: neither agent alone caused translocation
Translocation of δ PKC and δ PKC, co-incubation of NPA and ethanol [7]: induced
Predominant Localization of PKA Cα (agent alone) [19]: Nucleus &
translocation of PKA-Cα, agent alone [19]: did not cause any perceptible translocation
translocation of PKA-Cα, co-incubation of ethanol and NPA [19]: maximal translocation
